For one experiment, the system named is Haemophilus influenzae. Nature of the experiment: Kinetic study of Haemophilus influenzae growth in Todd Hewitt medium with GML, CFU/ml. To be noted: GML 50 μg/ml or 100 μg/ml; liquid culture up to 24 hours. The experiment is classed as cell-based. As to the method: The strain was inoculated (at a concentration of 1.2×10^6 CFU/ml) into 50 ml of Todd Hewitt medium containing various concentrations of GML. The cultures were grown for 24 hours in an atmosphere of 7% carbon dioxide (balance air) with shaking at 100 RPM. At designated times samples were removed, and colony forming units (CFU) per milliliter were determined by plate counts on chocolate agar plates.

A further experiment has as its system Staphylococcus aureus. To be noted: earlier work, U.S. application Ser. No. 10/986,512; cited from earlier work.
Experiment [1] relates to Gardnerella vaginalis (clinical isolate). Nature of the experiment: G. vaginalis liquid culture with GML in the presence of 10% fetal calf serum. The experiment is classed as cell-based. The note with it: for Cells/ml (×10^7) at 24 hours: 10% fetal calf serum. As to the method: Cells (1.2×10^7/ml in a total volume of 25 ml of dialyzable beef heart medium) of a recent clinical isolate of the gram negative rod Gardnerella vaginalis in vitro were cultured for various lengths of time with various concentrations of GML. At the various time points, the concentration of bacteria in the cultures were determined by colony counting on chocolate agar plates. GML at concentrations as low as 5 μg/ml were bactericidal to G. vaginalis. […] This finding points to the likely efficacy of GML in vivo. Moreover, GML (5 μg/ml or greater) inhibited growth of G. vaginalis plated (0.1 ml at 1.2×10^7/ml) onto chocolate agar plates (Table 3; data obtained after 24 hours of culturing).

The test system of experiment [2] is Lactobacillus (L. crispatis). Nature of the experiment: In vitro growth of L. crispatis bacteria with GML. The experiment is classed as cell-based. From the text:
Thus, it was surprising to discover that a number of other bacterial genera (see below) were highly sensitive to the direct toxic effects of GML.

Another experiment deals with Penicillium fungi. Nature of the experiment: Mycelium formation on Todd Hewitt agar plates containing GML, Penicillium. The format is cell-based. To be noted: for mycelium growth on plates: 36 hours, room temperature. As to the method:
Organisms (at the spore phase) of Aspergillus and Penicillium fungi obtained from nature were separately streaked on Todd Hewitt agar plates containing various concentrations of GML. The plates were incubated at room temperature for 36 hours after which mycelium growth was determined by direct visual examination. […] In contrast, the organisms grew on plates containing 0 and 50 μg/ml.

The subject of experiment [3] is Candida albicans (clinical isolates, yeast phase). In words: Yeast phase Candida albicans liquid cultures with GML, CFU/ml by plating. The format is cell-based. As to the method: The Candida albicans samples that were tested in the experiments described in Examples 2 and 3 were recent clinical isolates. The strains were of low passage and were maintained on Todd Hewitt (Difco Laboratories, Detroit, Mich.) agar plates. The organisms were transferred to 25 ml Todd Hewitt broth cultures in 125 ml Erlenmeyer flasks and grown overnight at 37° C. in 7% CO2 with shaking at 200 revolutions per minute (RPM). The next morning the organisms were transferred to new 125 ml flasks containing 25 ml Todd Hewitt medium at a final concentration of 1×10^6 colony forming units (CFU)/ml. […] The GML was made up at a concentration of 100,000 μg/ml in absolute ethanol for addition to the flasks. […] The flasks were cultured for up to 24 hours at 37° C. in 7% CO2 with shaking at 200 revolutions per minute. […] This experiment was performed twice.
The effect of growing yeast phase organisms of a clinical isolate of Candida albicans in the presence of GML was tested in liquid cultures as described in Example 1. […] The GML-mediated killing effect was not seen in cultures containing 20 and 10 μg/ml of GML. […] The experiment was repeated with identical results. The experiment was also carried out with a second clinical isolate of Candida albicans.

Setting [4] is: GML concentrations up to 100 μg/ml.
[5] abbreviates: first clinical isolate, 50, 200 and 1000 μg/ml GML, by 4 hours.

On to `CCCCCCCCCCCC(=O)OCC(O)CO` (stereo not shown) [GML, glycerol monolaurate], for which the “growth of H. influenza organisms” value with Haemophilus influenzae is “inhibited the growth”. For the same compound, in the experiment on Staphylococcus aureus, the “resistance to direct toxic effects of GML” value is “relatively resistant”. The “Cells/ml (×10^7) at 24 hours” value is 210 Cells/ml (×10^7) in experiment [1] (GML 1 μg/ml); 201 Cells/ml (×10^7) in experiment [1] (GML 5 μg/ml); 160 Cells/ml (×10^7) in experiment [1] (GML 10 μg/ml); 88 Cells/ml (×10^7) in experiment [1] (GML 20 μg/ml); 1.8 Cells/ml (×10^7) in experiment [1] (GML 50 μg/ml); <0.03 Cells/ml (×10^7) in experiment [1] (GML 100 μg/ml). Moreover, in experiment [1] (medium supplemented with fetal calf serum), the “inhibition of growth of G. vaginalis” value is reported as “effective in inhibiting the growth”. The “resistance to direct toxicity by GML” value in experiment [2] is “relatively resistant”. The entries for the “effect on in vitro growth” value in experiment [2] (GML concentrations up to 50 μg/ml) and in experiment [2] (setting [4]) were “had no effect” and “delayed (but did not stop) its growth”, respectively. Also, the “effect on stationary phase survival” value in experiment [2] (setting [4]) is listed as “extended their stationary phase survival”. In addition, the “mycelium growth on plates” value with Penicillium fungi (50 μg/ml GML) is recorded as “grew”; with Penicillium fungi (100 and 500 μg/ml GML) it was “failed to grow”. Moreover, the “colony size on plates” value with Penicillium fungi (50 μg/ml GML, about 4 days compared to 36 hours) is listed as “larger in size”. Further, in the experiment on Penicillium fungi (100 and 500 μg/ml GML, about 4 days), the “visible colonies on plates” value is recorded as “no visible colonies”. Besides, the growth in culture result in experiment [3] (first clinical isolate, 20 and 10 μg/ml GML) is listed as “grew to almost the same level as in the control cultures”. The “organisms detectable in culture” value in experiment [3] (setting [5]) is reported as “no organisms were detectable”; in experiment [3] (second clinical isolate, 100 and 500 μg/ml GML, by 2 hours), “no organisms were detectable”. For the same compound, the “reduction in CFU/ml” value in experiment [3] (setting [5]) is given as above 5 log. Besides, in experiment [3] (second clinical isolate, 50 μg/ml GML, 2, 4 and 6 hours), the “number of organisms in culture compared to 0 μg/ml” value is reported as “reduced at all time intervals sampled”.
